{"source": "patent US20080242726A1", "about": "(priority 2004, published 2008)", "key": {"total serum testosterone": {"test_system": "total serum testosterone", "assay": "Effects of Clomids on serum testosterone in male baboons", "format": "in vivo", "settings": "1.5 mg/kg for 12 days", "excerpt": "(§1) The samples analyzed were sera taken on the day of first treatment before being given test article (day 0), after 12 days of treatment (day 12) and 7 days after the last treatment (end or wash-out)."}, "serum cholesterol": {"test_system": "serum cholesterol", "assay": "Effects on cholesterol levels in male baboons", "format": "in vivo", "settings": "1.5 mg/kg for 12 days", "excerpt": "as §1"}, "serum prolactin (PRL)": {"test_system": "serum prolactin (PRL)", "assay": "Effects on serum prolactin (PRL) in male baboons", "format": "in vivo", "settings": "1.5 mg/kg for 12 days", "excerpt": "as §1"}, "[1]": {"excerpt": "as §1"}, "total testosterone": {"test_system": "total testosterone", "assay": "Comparison of Androxal to Androgel in hypogonadal men: total testosterone", "format": "in vivo", "settings": "two weeks", "procedure": "(§2) A placebo controlled challenge study was conducted at the Advanced Biological Research, Inc. (ABR) Clinical Research Center in Hackensack, N.J. to compare orally administered Androxal™ (trans-clomiphene) to Androgel® (testosterone) in hypogonadal men. Androgel® (Solvay Pharmaceuticals, Inc.) consists of a cream that administers exogenous testosterone in a transdermal matrix.\n(§3) The study enrolled 62 hypogonadal men with testosterone levels less than 300 ng/dl (normal 298-1034 ng/dl) that were randomized into 6 different arms, three doses of Androxal™ (12.5 mg, 25 mg, and 50 mg), placebo, and both high and low doses of Androgel®. Half of the men in each of the Androxal™ and placebo arms were randomized into cohorts that underwent in-clinic sessions on days 1 and 14 to determine pharmacokinetic parameters for Androxal™ as well as cyclical changes in testosterone. The placebo and Androxal™ doses were administered in a double blind fashion. The Androgel® cream was administered in an open label fashion. Half of the Androgel® patients underwent in-clinic sessions similar to the other patients in the study. Following the two week drug exposure patients were followed for an additional seven to ten days to determine the status of their testosterone levels."}, "[2]": {"assay": "Comparison of Androxal to Androgel in hypogonadal men: side effects", "format": "in vivo", "settings": "two week exposure, compared with placebo", "procedure": "as §2, §3"}}}
{"smiles": "CCN(CC)CCOc1ccc(C(=C(Cl)c2ccccc2)c2ccccc2)cc1", "note": "[Clomid, clomiphene]", "values": [{"measurement": "effect on total serum testosterone", "setting": "total serum testosterone", "result": "more variable total testosterone levels"}, {"measurement": "trend of serum cholesterol", "setting": "serum cholesterol", "result": "slight increase"}]}
{"smiles": "CCN(CC)CCOc1ccc(/C(=C(\\Cl)c2ccccc2)c2ccccc2)cc1", "note": "[Enclomid, trans-clomiphene]", "values": [{"measurement": "effect on total serum testosterone", "setting": "total serum testosterone", "result": "significant increases"}, {"measurement": "serum prolactin (PRL) during the study", "setting": "serum prolactin (PRL)", "result": "decrease"}, {"measurement": "trend of serum cholesterol", "setting": "serum cholesterol", "result": "tended to decrease"}, {"measurement": "effect on platelets", "setting": "[1]; 12-day treatment", "result": "clear effect"}, {"measurement": "counts of eosinophiles", "setting": "[1]; male baboons", "result": "raising the counts"}, {"measurement": "mean increase of testosterone from baseline", "setting": "total testosterone; high dose 50 mg oral", "result": 294, "unit": "ng/dL"}, {"measurement": "mean increase of testosterone from baseline", "setting": "total testosterone; low dose 12.5 mg oral", "result": 169, "unit": "ng/dL"}, {"measurement": "mean increase of testosterone from baseline", "setting": "total testosterone; mid dose 25 mg oral", "result": 247, "unit": "ng/dL"}, {"measurement": "side effects", "setting": "[2]", "result": "no side effects"}]}
{"smiles": "CCN(CC)CCOc1ccc(/C(=C(/Cl)c2ccccc2)c2ccccc2)cc1", "note": "[Zuclomid, cis-clomiphene]", "values": [{"measurement": "effect on total serum testosterone", "setting": "total serum testosterone", "result": "did not raise total serum testosterone to any extent"}, {"measurement": "trend of serum cholesterol", "setting": "serum cholesterol", "result": "tended to increase"}]}
